# Experimental data reported in patent publication US20250136606A1, “MODULATORS OF TRPML, THEIR COMPOSITIONS AND METHODS OF USE” (Caraway Therapeutics, Inc., priority 2021, published 2025).
# Tests used:
# Assay type in all cases: cell-based
# Settings in all cases: fluorescent calcium assay
# TRPML1 = TRPML1 (Homo sapiens, UniProt Q9GZU1); assay: Fluorescent TRPML1 assay (Fluo4-AM calcium fluorescence in doxycycline-induced HEK-293 Trex cells)
# In short: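 hTRPML1 (mutated for cell-surface expression) in HEK-293 Trex, dox 0.5 ug/mL o/n; Fluo4-AM 1 uM ~60 min, then ~60 min de-esterification, dark; modified Ringer's + 10 mM Ca. Cmpds 20 uM–6 nM final, half-log, n=3. Ex480/Em540; % activity vs ctrls; EC50 by nonlinear regression.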
# TRPML2 = target: T1, TRPML2 (Homo sapiens, UniProt Q8IZK6); assay: Fluorescent TRPML2 assay (performed as for TRPML1, substituting the TRPML2 subtype)
# T1 construct: expressed in transfected cells
# T1 sequence (Q8IZK6 1-566): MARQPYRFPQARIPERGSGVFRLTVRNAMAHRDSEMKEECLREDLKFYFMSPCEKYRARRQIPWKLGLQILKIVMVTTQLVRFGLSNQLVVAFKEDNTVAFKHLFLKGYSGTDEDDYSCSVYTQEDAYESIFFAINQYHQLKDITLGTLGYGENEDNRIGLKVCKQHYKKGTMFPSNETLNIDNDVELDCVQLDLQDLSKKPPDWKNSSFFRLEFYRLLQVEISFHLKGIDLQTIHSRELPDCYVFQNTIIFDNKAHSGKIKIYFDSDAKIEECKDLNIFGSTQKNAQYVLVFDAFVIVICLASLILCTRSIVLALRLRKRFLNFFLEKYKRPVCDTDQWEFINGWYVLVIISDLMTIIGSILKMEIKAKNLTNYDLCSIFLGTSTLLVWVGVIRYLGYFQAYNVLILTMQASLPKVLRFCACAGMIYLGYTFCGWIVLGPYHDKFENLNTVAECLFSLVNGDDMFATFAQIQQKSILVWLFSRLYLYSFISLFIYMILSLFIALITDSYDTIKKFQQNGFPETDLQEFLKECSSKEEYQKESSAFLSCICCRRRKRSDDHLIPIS
# Method: HEK-293 Trex cells were stably transfected with a construct consisting of the human coding sequence for TRPML1 cloned into the […] plasmid pCDNA5 T/O. Mutations were introduced into the TRPML1 sequence to facilitate expression on the cell surface (Silvia Vergarajauregui, Rosa Puertollano, Traffic. 2006 March; 7(3): 337-353). Briefly, the cells are cultured in 150 mm round tissue culture dishes containing 20 mL of media. The day before the assay the cells are rinsed with DPBS-Ca—Mg and then treated briefly with Trypsin-EDTA. The Trypsin-EDTA is diluted with growth media, and cells are counted. 38×10^6 cells are re-plated into 150 mm round tissue culture dishes in media containing 0.5 ug/mL doxycycline to induce expression of hTRPML1.
# The day of the experiment cells are lifted from the plates as above and collected by centrifugation. The cells are then suspended in dye loading buffer consisting of Ringer's solution supplemented with 0.1% Pluronic Acid and 1 micromolar Fluo4-AM dye. Cells are loaded for ˜60 minutes in the dark with occasional mixing. The cells are collected by centrifugation, the loading media aspirated, and the cells resuspended in 25 mL Ringer's solution and incubated ˜60 minutes in the dark. The cells are again collected by centrifugation, rinsed in Ringer's Solution and resuspended to […] in modified Ringer's solution containing 10 mM calcium.
# Compounds are dissolved to a concentration of 10 millimolar with DMSO. Compound plates are created by dispensing compounds into 384 well black wall clear bottom plates (Greiner 781091). Positive and negative controls are included on each plate. Typically, different amounts of each compound are tested ranging from 100 nanoMoles (20 micromolar final concentration) decreasing in half-log steps to 31 picoMoles (6 nanomolar final concentration). Each concentration is typically tested in triplicate.
# 50 microliters of dye-loaded cells are dispensed into each well of the compound assay plate created above. The fluorescence in each well is then determined with an excitation wavelength of 480 nm and an emission wavelength of 540 nm using either a Molecular Devices SpectraMax multimode plate reader or a Hamamatsu FDSS/uCell plate imager.
# The resulting fluorescence for each well is exported as an ascii file and loaded into our LIMS for analysis. The percent activity of each compound at each concentration is determined by comparison to the positive and negative control wells included in each plate.
# TRPML2 and TRPML3 Assays Assays for TRPML2 and TRPML3 were performed as above for TRPML1, by substituting the appropriate TRPML2 or TRPML3 subtype for the TRPML1.
# EC50 values were calculated using a non-linear regression of Prism. In the table, “A” indicates an EC50 of less than 100 nM, “B” indicates an EC50 range from 100 nM to 500 nM; “C” indicates an EC50 range from 500 nM to 2 μM; and “D” indicates an EC50 greater than 2 μM.
# TRPML3 = target: T2, TRPML3 (Homo sapiens, UniProt Q8TDD5); assay: Fluorescent TRPML3 assay (performed as for TRPML1, substituting the TRPML3 subtype)
# T2 construct: expressed in transfected cells
# T2 sequence (Q8TDD5 1-553): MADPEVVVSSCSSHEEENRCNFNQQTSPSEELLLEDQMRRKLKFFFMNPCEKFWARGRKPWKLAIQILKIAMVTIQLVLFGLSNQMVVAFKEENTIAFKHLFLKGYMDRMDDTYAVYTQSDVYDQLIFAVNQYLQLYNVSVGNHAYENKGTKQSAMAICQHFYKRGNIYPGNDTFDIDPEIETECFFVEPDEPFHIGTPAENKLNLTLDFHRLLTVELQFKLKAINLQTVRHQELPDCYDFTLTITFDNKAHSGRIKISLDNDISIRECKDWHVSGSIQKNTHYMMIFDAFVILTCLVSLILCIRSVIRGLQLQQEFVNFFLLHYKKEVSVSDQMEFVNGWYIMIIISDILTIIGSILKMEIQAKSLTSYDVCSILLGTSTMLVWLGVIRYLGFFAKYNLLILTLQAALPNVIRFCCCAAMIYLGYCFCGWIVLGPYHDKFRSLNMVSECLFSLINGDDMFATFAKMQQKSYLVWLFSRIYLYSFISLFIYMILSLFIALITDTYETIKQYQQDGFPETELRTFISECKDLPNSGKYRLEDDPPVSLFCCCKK
# In short: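 HEK-293 Trex, dox-induced (0.5 ug/mL), mutated for surface expression. Fluo4-AM 1 micromolar load ~60 min, dark; buffer modified Ringer's, 10 mM Ca. Cpds 20 micromolar–6 nanomolar final, half-log, n=3. Read ex 480/em 540; % activity vs controls; EC50 nonlinear fit.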
# Chain of TRPML1 (Q9GZU1 whole entry L15A/L16A/L577A/L578A, form open): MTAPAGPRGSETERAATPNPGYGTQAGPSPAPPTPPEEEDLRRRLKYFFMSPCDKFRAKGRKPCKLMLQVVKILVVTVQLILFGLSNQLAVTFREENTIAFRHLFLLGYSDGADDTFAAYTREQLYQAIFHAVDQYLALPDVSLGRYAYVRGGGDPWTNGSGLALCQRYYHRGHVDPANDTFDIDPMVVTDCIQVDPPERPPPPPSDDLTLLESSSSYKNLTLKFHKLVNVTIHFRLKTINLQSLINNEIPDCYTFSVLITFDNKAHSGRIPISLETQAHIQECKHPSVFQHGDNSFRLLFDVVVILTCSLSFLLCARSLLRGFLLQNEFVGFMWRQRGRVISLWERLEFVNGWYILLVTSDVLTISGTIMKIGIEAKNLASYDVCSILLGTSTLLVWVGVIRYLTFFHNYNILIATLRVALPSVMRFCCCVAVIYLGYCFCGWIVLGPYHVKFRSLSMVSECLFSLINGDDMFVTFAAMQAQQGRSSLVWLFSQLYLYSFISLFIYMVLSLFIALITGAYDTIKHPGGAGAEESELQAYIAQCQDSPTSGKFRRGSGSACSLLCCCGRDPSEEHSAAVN
SMILES,EC50 (TRPML1) [nM],EC50 (TRPML2) [nM],EC50 (TRPML3) [nM]
"C[C@@H]1CN(c2ncnc3c2c(C2CC2)cn3-c2cc(F)cc(Cl)c2)CCN1C(=O)OC(C)(C)C [Compound 123, tert-butyl (R)-4-(7-(3-chloro-5-fluorophenyl)-5-cyclopropyl-7H-pyrrolo[2,3-d]pyrimidin-4-yl)-2-methylpiperazine-1-carboxylate]",< 100,100 to 500,< 100
"C[C@@H]1CN(c2ncnc3c2c(-c2cnccn2)cn3-c2cccc(Cl)c2)[C@@H](C)CN1C(=O)OC(C)(C)C [Compound 124, tert-butyl (2R,5S)-4-(7-(3-chlorophenyl)-5-(pyrazin-2-yl)-7H-pyrrolo[2,3-d]pyrimidin-4-yl)-2,5-dimethylpiperazine-1-carboxylate]",< 100,500 to 2000,100 to 500
"C[C@H]1CN(C(=O)OC(C)(C)C)CCN1c1ncnc2c1c(C1CC1)cn2-c1cccc(F)c1 [Compound 127, tert-butyl (S)-4-(5-cyclopropyl-7-(3-fluorophenyl)-7H-pyrrolo[2,3-d]pyrimidin-4-yl)-3-methylpiperazine-1-carboxylate]",< 100,100 to 500,< 100
"C[C@H]1CN(C(=O)OC(C)(C)C)CCN1c1ncnc2c1c(C1CC1)cn2-c1ccc(F)cc1 [Compound 128, tert-butyl (S)-4-(5-cyclopropyl-7-(4-fluorophenyl)-7H-pyrrolo[2,3-d]pyrimidin-4-yl)-3-methylpiperazine-1-carboxylate]",< 100,100 to 500,< 100
"C[C@H]1CN(C(=O)OC(C)(C)C)CCN1c1ncnc2c1c(C1CC1)cn2-c1cc(Cl)cc(Cl)c1 [Compound 129, tert-butyl (S)-4-(5-cyclopropyl-7-(3,5-dichlorophenyl)-7H-pyrrolo[2,3-d]pyrimidin-4-yl)-3-methylpiperazine-1-carboxylate]",< 100,100 to 500,< 100
"C[C@@H]1CN(c2ncnc3c2c(C2CC2)cn3-c2cccc(Cl)c2)[C@@H](C)CN1C(=O)OC(C)(C)C [Compound 130, tert-butyl (2R,5S)-4-(7-(3-chlorophenyl)-5-cyclopropyl-7H-pyrrolo[2,3-d]pyrimidin-4-yl)-2,5-dimethylpiperazine-1-carboxylate]",< 100,100 to 500,< 100
"C[C@@H]1CN(c2ncnc3c2c(-c2cccnc2)cn3-c2cccc(Cl)c2)[C@@H](C)CN1C(=O)OC(C)(C)C [Compound 131, tert-butyl (2R,5S)-4-(7-(3-chlorophenyl)-5-(pyridin-3-yl)-7H-pyrrolo[2,3-d]pyrimidin-4-yl)-2,5-dimethylpiperazine-1-carboxylate]",< 100,100 to 500,< 100
"CCOC(=O)N1C[C@H](C)N(c2ncnc3c2c(C2CC2)cn3-c2cccc(Cl)c2)C[C@H]1C [Compound 132, Ethyl (2R,5S)-4-(7-(3-chlorophenyl)-5-cyclopropyl-7H-pyrrolo[2,3-d]pyrimidin-4-yl)-2,5-dimethylpiperazine-1-carboxylate]",< 100,> 2000,100 to 500
"CCOC(=O)N1C[C@H](C)N(c2ncnc3c2c(-c2cccnc2)cn3-c2cccc(Cl)c2)C[C@H]1C [Compound 133, Ethyl (2R,5S)-4-(7-(3-chlorophenyl)-5-(pyridin-3-yl)-7H-pyrrolo[2,3-d]pyrimidin-4-yl)-2,5-dimethylpiperazine-1-carboxylate]",100 to 500,> 2000,500 to 2000
"C[C@@H]1CN(c2ncnc3c2c(-c2ccccc2F)cn3-c2ccccn2)[C@@H](C)CN1C(=O)OC(C)(C)C [Compound 134, tert-butyl (2R,5S)-4-(5-(2-fluorophenyl)-7-(pyridin-2-yl)-7H-pyrrolo[2,3-d]pyrimidin-4-yl)-2,5-dimethylpiperazine-1-carboxylate]",< 100,100 to 500,< 100

# Other lines, results leading:
EC50 (TRPML1) [nM],EC50 (TRPML2) [nM],EC50 (TRPML3) [nM],SMILES
< 100,100 to 500,< 100,"COc1cncc(-n2cc(-c3ccccc3F)c3c(N4C[C@@H](C)N(C(=O)OC(C)(C)C)C[C@@H]4C)ncnc32)c1 [Compound 135, tert-butyl (2R,5S)-4-(5-(2-fluorophenyl)-7-(5-methoxypyridin-3-yl)-7H-pyrrolo[2,3-d]pyrimidin-4-yl)-2,5-dimethylpiperazine-1-carboxylate]"
< 100,< 100,< 100,"Cc1ccnc(-n2cc(-c3ccccc3F)c3c(N4C[C@@H](C)N(C(=O)OC(C)(C)C)C[C@@H]4C)ncnc32)c1 [Compound 136, tert-butyl (2R,5S)-4-(5-(2-fluorophenyl)-7-(4-methylpyridin-2-yl)-7H-pyrrolo[2,3-d]pyrimidin-4-yl)-2,5-dimethylpiperazine-1-carboxylate]"
100 to 500,500 to 2000,100 to 500,"CCOC(=O)N1C[C@H](C)N(c2ncnc3c2c(-c2ccccc2F)cn3-c2ccccn2)C[C@H]1C [Compound 137, ethyl (2R,5S)-4-(5-(2-fluorophenyl)-7-(pyridin-2-yl)-7H-pyrrolo[2,3-d]pyrimidin-4-yl)-2,5-dimethylpiperazine-1-carboxylate]"
500 to 2000,500 to 2000,500 to 2000,"CCOC(=O)N1C[C@H](C)N(c2ncnc3c2c(-c2ccccc2F)cn3-c2cncc(OC)c2)C[C@H]1C [Compound 138, ethyl (2R,5S)-4-(5-(2-fluorophenyl)-7-(5-methoxypyridin-3-yl)-7H-pyrrolo[2,3-d]pyrimidin-4-yl)-2,5-dimethylpiperazine-1-carboxylate]"
< 100,< 100,< 100,"C[C@H]1CN(C(=O)OC(C)(C)C)CCN1c1ncnc2c1c(C1CC1)cn2-c1cccc(Cl)c1 [Compound 139, tert-butyl (S)-4-(7-(3-chlorophenyl)-5-cyclopropyl-7H-pyrrolo[2,3-d]pyrimidin-4-yl)-3-methylpiperazine-1-carboxylate]"
